Measurements: patent publication US7851510B2, “Gossypol derivatives, production method thereof and uses of same” (Centre National de la Recherche Scientifique (C.N.R.S.), priority 2004, dated 2010)

system: KB tumour cell line; test: Cytotoxicity vis-à-vis the KB tumour cell line; type: cell-based; conditions: Homo sapiens
Method: The cytotoxicity of the compound vis-à-vis the KB tumour cell line was measured as is described in Dao et al. (2003) Bioorg. Med. Chem. 11:2001-2006.

Compared with `CC1=C(C2=C(C)C(=O)c3c(c(CO)c(O)c(O)c3C(C)C)C2=O)C(=O)c2c(CO)c(O)c(O)c(C(C)C)c2C1=O` [(5), 6,7,6′,7′-tetrahydroxy-8,8′-bis-hydroxymethyl-5,5′-diisopropyl-3,3′-dimethyl-[2,2′]binaphthalenyl-1,4,1′,4′-tetraone], `CC1=C(C2=C(C)C(=O)c3c(c(CSc4ccccc4)c(O)c(O)c3C(C)C)C2=O)C(=O)c2c(CSc3ccccc3)c(O)c(O)c(C(C)C)c2C1=O` [(7), 6,7,6′,7′-tetrahydroxy-5,5′-diisopropyl-3,3′-dimethyl-8,8′-bis-phenylsulphanylmethyl-[2,2′]binaphthalenyl-1,4,1′,4′-tetraone] is 4-fold higher in IC50: 1 µM for the first, 4 µM for the second. The first is the more potent here.

Going from `CC1=C(C2=C(C)C(=O)c3c(c(CSc4ccc(C)cc4)c(O)c(O)c3C(C)C)C2=O)C(=O)c2c(CSc3ccc(C)cc3)c(O)c(O)c(C(C)C)c2C1=O` [(8), 6,7,6′,7′-tetrahydroxy-5,5′-diisopropyl-3,3′-dimethyl-8,8′-bis-p-tolylsulphanylmethyl-[2,2′]binaphthalenyl-1,4,1′,4′-tetraone] to `CC1=C(C2=C(C)C(=O)c3c(c(CSc4ccc(Cl)cc4)c(O)c(O)c3C(C)C)C2=O)C(=O)c2c(CSc3ccc(Cl)cc3)c(O)c(O)c(C(C)C)c2C1=O` [(10), 6,7,6′,7′-tetrahydroxy-5,5′-diisopropyl-8,8′-bis-(4-chloro-phenylsulphanylmethyl)-3,3′-dimethyl-[2,2′]binaphthalenyl-1,4,1′,4′-tetraone], the IC50 falls from 6.5 µM to 3 µM (2.2-fold). The second is the more potent here.

`COc1ccc(SCc2c(O)c(O)c(C(C)C)c3c2C(=O)C(C2=C(C)C(=O)c4c(c(CSc5ccc(OC)cc5)c(O)c(O)c4C(C)C)C2=O)=C(C)C3=O)cc1` [(9), 6,7,6′,7′-tetrahydroxy-5,5′-diisopropyl-8,8′-bis-(4-methoxy-phenylsulphanylmethyl)-3,3′-dimethyl-[2,2′]binaphthalenyl-1,4,1′,4′-tetraone] and `CC1=C(C2=C(C)C(=O)c3c(c(CSc4c(F)c(F)cc(F)c4F)c(O)c(O)c3C(C)C)C2=O)C(=O)c2c(CSc3c(F)c(F)cc(F)c3F)c(O)c(O)c(C(C)C)c2C1=O` [(11), 6,7,6′,7′-tetrahydroxy-5,5′-diisopropyl-8,8′-bis-(2,3,5,6-tetrafluoro-phenylsulphanylmethyl)-3,3′-dimethyl-[2,2′]binaphthalenyl-1,4,1′,4′-tetraone] are within 1.5-fold of each other in IC50: 6.5 µM for the first, 8.5 µM for the second.
